According to patent US5688789A, “PCP receptor ligands and the use thereof” (State of Oregon, acting by and through the Oregon State …, priority 1995, dated 1997):

Columns and labels:
PCP receptor [1] = experiment: PCP receptor affinity of IDDC analogs vs. [3H]MK-801 in rat brain membrane (Example 10, Table 2); details: read-out: PCP Receptor Affinity IC50 in Rat Brain Membrane vs. [3H]MK-801, MEAN
PCP receptor [2] = experiment: PCP receptor binding against 3H-MK-801 (Example 5, Table 1); details: for IC50: vs. 3H-MK-801, ± sem (n)
Procedure: The PCP receptor binding properties of various compounds of the invention against ^3 H-5-methyl-10,11-dihydro-5H-dibenzo[a,d]cycloheptene-5,10-imine (^3 H-MK-801) were determined.

[3] = test system: NMDA receptor-ion channel complex; experiment: Whole-cell patch clamp: block of NMDA-induced currents on cultured rat hippocampal neurons (Example 6); format: cell-based; details: for inward current on serial applications with NMDA: 10 uM compound with NMDA; for recovery from inhibition of NMDA current: after 10 uM compound
Procedure: In the electrophysiological studies the compounds are evaluated with respect to their ability to block the ion channel of the NMDA receptor channel complex and thereby inhibit Ca^2+ and Na^+ ion flow into the nerve cell. Initially, the ion channels are opened by activating the NMDA receptor. Ion flow is determined by measuring the passage of electrical current, i.e., a use-dependent decrease in electrical current indicates blocking of the ion channel due to binding of a ligand at a site within the channel.
Hippocampal neurons were obtained from the CA1 region of the hippocampus from 1-3 day-old-newborn rats (Long-Evans). Small blocks of tissue ([…]1mm^3) were incubated in papain (20 units ml^-1; Worthington-Cooper) for 30 minutes. The tissue was dissociated into a single cell suspension by trituration with a fire-polished Pasteur pipette in complete growth medium (Earle's MEM, 20 mM glucose, 50 units/ml penicillin/streptomycin, 5% heat-inactivated fetal calf serum, Serum Extender from Collaborative Research) containing 2.5 mg/ml bovine serum albumin and 2.5 mg/ml trypsin inhibitor (Sigma). The cells were plated onto glass coverslips coated with collagen/poly-D-lysine. Cultures were fed every 3 days by replacing haft the volume of medium. Arabinosylcytosine (5×10^-6 M) was added to the cultures for 1 or 2 days during the first week after plating to suppress the proliferation of non-neuronal cells.
All electrophysiology experiments were performed with the whole-cell mode of patch clamp recording [Hamill, O. D., Marty, A., Neher, E., Sakman, B., and Sigworth, F. J., Pflugers Arch. 391:85-100 (1981)] from neurons grown for 1-3 weeks in culture. Agonists and agonist/antagonist combinations were applied by a U-tube mol (Fenwick et al, J. Physiol. 331:577-597 (1982)) to neurons in whole-cell experiments. The external solution contained (in mM) NaCl 140, KCl 3.5, CaCl2 1, glucose 5, picrotoxinin 0.02, tetrodotoxin (TTX) 5×10^-4, and N-2-hydroxyethyl-piperazine-N'-2-ethanesulfonic acid (HEPES) 10. The pH of this solution was adjusted to 7.4 with NaOH. The internal (patch electrode) solution contained (mM) Cs-methanesulfonate 120, CsCl 10, ethyleneglycol-bis-(β-aminoethylether)-N,N,N',N'-tetraacetic acid (EGTA) 10, HEPES 10 (pH adjusted to 7.0 with CsOH). Membrane current was filtered at 4000 Hz (-3dB; 8-pole Bessel) and recorded on magnetic tape for later analysis. Experiments were performed at room temperature (20°-25° C.). [Sources of chemicals: N-methyl-D-aspartate, Cambridge Research Biochemicals; pirotoxinin, Sigma Chemical Company; salts for recording solutions, Aldrich (Gold Label) or Alfa (Puratronic). [^3 H]Kainate and [3H]CPP and [^3 H]AMPA were purchased from Dupont/NEN (Boston, Mass.)].
Repetitive applications (every 30 s) to the same cell produced currents which varied less than 5% over a period of at least 30 minutes.

rat hippocampal cells = experiment: In vitro neurotoxicity assay: protection against glutamate, Trypan Blue survival count (Example 7); format: cell-based; details: 10 uM, glutamate 0-1000 uM, 1 uM glycine
Procedure: In the cytotoxicity studies, cultured mammalian neurons expressing EAA receptors are exposed in vitro to glutamate and the particular compound under investigation. The survival percentage of cells indicates the ability of the compound to protect against glutamate-induced neuronal death.
Dissociated rat hippocampal cultures were prepared using a modification of the method of Huettner and Baughman [Huettner, J. E. and Baugham, R. W., J. Neurosci. 6:3044-3060 (1986)]. The cortices were removed from 1-3 day post-natal rats (Sprague-Dawley) that had been anesthetized with chloral hydrate, and the hippocampi were dissected out and placed in Cl^- free dissociation medium supplemented with 1 mM kynurenic acid and 10 mM MgSO4 (Choi, D. W., J. Neurosci. 7:369-379 (1987)). The hippocampi were washed in the dissociation medium, then incubated for 2×20 minutes at 37° C. in dissociation medium containing 10 units/ml of Papain (Worthington). After the enzyme treatment, the tissue was incubated for three 5-minute periods at 37° C. with 10 mg/ml trypsin inhibitor (Sigma type II-0).
The cells were dissociated by trituration in growth medium and plated as 0.15 ml droplets of cell suspension onto the center of 35 mm Primaria (Falcon) dishes that had been stamped with a labeled 26×26 grid of approximately 0.64 cm^2 total area using a Mecanex BB form (WPI, New Haven, Conn.) and coated with poly-D-lysine and laminin (Collaborative Research). The cell density was between 2.5 and 4.0×10^5 cells per dish. The growth medium was Eagles minimum essential media (MEM, Earle's salts) supplemented with 5% fetal bovine serum (CCL), 5% defined supplemented calf serum (HyClone), 50 mM glucose, 50 units/ml penicillin/streptomycin and MITO+serum extender (Collaborative Research). The cells were maintained at 37° C. in a humidified 4.5% CO2 atmosphere. […]
Before treatment, sister cultures were examined under phase-contrast microscopy to ensure that the cultures were of a similar density. […] The cultures were washed three times and the surviving cells counted in the grid area using phase contrast microscopy. […]

SMILES | IC50 (PCP receptor [1]) | further results
COc1ccc2c(c1)C1CN(C)C2Cc2ccc(Br)cc21 (racemic) [(±)-3-Br-7-OMe--N--Me-IDDC, 3-Bromo-7-methoxy-N-methyl-5-(iminomethano)-10,11-dihydro-5H-dibenzo[a,d]cycloheptene] | 643 nM | –
COc1ccc2c(c1)C1CNC2Cc2ccc(Br)cc21 (racemic) [(±)-3-Br-7-OMe-IDDC, 3-bromo-7-methoxy-5-(iminomethano)-10,11-dihydro-5H-dibenzo[a,d]cycloheptene] | 114 nM | –
CN1CC2c3cc(Br)ccc3CC1c1ccccc12 (racemic) [(±)-3-Br--N--Me-IDDC, 3-bromo-N-methyl-5-(iminomethano)-10,11-dihydro-5H-dibenzo[a,d]cycloheptene] | 1040 nM | –
Brc1ccc2c(c1)C1CNC(C2)c2ccccc21 (racemic) [(±)-3-Br-IDDC, 3-bromo-5-(iminomethano)-10,11-dihydro-5H-dibenzo-[a,d]cycloheptene] | 41 nM | –
COc1ccc2c(c1)C1CNC2Cc2ccc(Cl)cc21 (racemic) [(±)-3-Cl-7-OMe-IDDC, 3-chloro-7-methoxy-5-(iminomethano)-10,11-dihydro-5H-dibenzo[a,d]cycloheptene] | 113 nM | –
Clc1ccc2c(c1)C1CNC(C2)c2ccccc21 (racemic) [(±)-3-Cl-IDDC] | 64.2 nM | –
Fc1ccc2c(c1)C1CNC(C2)c2ccccc21 (racemic) [(±)-3-F-IDDC] | 29.4 nM | –
Ic1ccc2c(c1)C1CNC(C2)c2ccccc21 (racemic) [(±)-3-Iodo-IDDC, 3-iodo-5-(iminomethano)-10,11-dihydro-5H-dibenzo-[a,d]cycloheptene] | 160 nM | –
Nc1ccc2c(c1)C1CNC(C2)c2ccccc21 (racemic) [(±)-3-NH2-IDDC, 3-amino-5-(iminomethano)-10,11-dihydro-5H-dibenzo[a,d]cycloheptene] | 486 nM | –
COc1ccc2c(c1)C1CNC(C2)c2ccccc21 (racemic) [(±)-3-OMe-IDDC, 3-methoxy-5-(iminomethano)-10,11-dihydro-5H-dibenzo-[a,d]cycloheptane] | 168 nM | –
CC12CNC(Cc3ccccc31)c1ccccc12 (racemic) [(±)-5-Me-IDDC, 5-methyl-10,5-(iminomethano)-10,11-dihydro-5H-dibenzo[a,d]cycloheptene] | 119 nM | IC50 (PCP receptor [2]): 125 nM
Clc1ccc2c(c1)C1CNC2Cc2ccccc21 (racemic) [(±)-7-Cl-IDDC, 7-Chloro-5-(iminomethano)-10,11-dihydro-5H-dibenzo-[a,d]cycloheptene] | 690 nM | –
COc1ccc2c(c1)C1CNC2Cc2ccccc21 (racemic) [(±)-7-OMe-IDDC, 7-Methoxy-5-(iminomethano)-10,11-dihydro-5H-dibenzo-[a,d]cycloheptene] | 332 nM | –
CC12NC(Cc3ccccc31)c1ccccc12 (single isomer, unassigned) [MK-801, 5-methyl-10,11-dihydro-5H-dibenzo[a,d]cycloheptene-5,10-imine, reference compound] | – | inward current on serial applications with NMDA [3]: the inward current became progressively smaller with serial applications; recovery from inhibition of NMDA current [3]: required repeated applications of NMDA alone and was speeded by holding the membrane potential at positive voltages
CN1CC2c3ccccc3CC1c1ccccc12 (single isomer, unassigned) [N-methyl IDDC, N-methyl-10,5-(iminomethano)-10,11-dihydro-5H-dibenzo[a,d]cycloheptene] | – | cell survival compared to control (rat hippocampal cells): enhanced cell survival when compared to control values
Clc1ccc2c(c1)C1CNC(C2)c2ccccc21 (single isomer, unassigned; (+)) [(+)-3-Chloro-IDDC, (+) 3-Chloro-5-(iminomethano)-10,11-dihydro-5H-dibenzo-[a,d]cycloheptene] | 14 nM | –
Fc1ccc2c(c1)C1CNC(C2)c2ccccc21 (single isomer, unassigned; (+)) [(+)-3-Fluoro-IDDC, (+)-3-fluoro-5-(iminomethano)-10,11-dihydro-5H-dibenzo-[a,d]cycloheptene] | 18 nM | –
Clc1ccc2c(c1)C1CNC(C2)c2ccccc21 (single isomer, unassigned; (-)) [(-)-3-Chloro-IDDC, (-)-3-Chloro-5-(iminomethano)-10,11-dihydro-5H-dibenzo-[a,d]cycloheptene] | 110 nM | –
CN1C[C@H]2c3ccccc3C[C@@H]1c1ccccc12 [(+)-N--Me-IDDC, N-methyl-10,5-(iminomethano)-10,11-dihydro-5H-dibenzo[a,d]cycloheptene] | 65.4 nM | inward current on serial applications with NMDA [3]: Serial applications evoked progressively smaller currents; rate of recovery from blockade compared with MK-801 ([3]; 10 uM, relative to MK-801): somewhat more rapid than the rate of recovery of responses following MK-801; inhibition of NMDA current ([3]; 10 uM, 50 uM NMDA + 1 uM glycine, -60 mV): inhibited the NMDA current in a use-dependent and voltage-dependent manner; recovery from inhibition of NMDA current [3]: reversed only with prolonged or repeated application of NMDA; affinity for the PCP receptor compared with MK-801 (PCP receptor [2]; relative to MK-801): lower affinity than MK-801 for the PCP receptor; IC50 (PCP receptor [2]): 800 ± 9 nM
CN[C@H](CC(=O)O)C(=O)O [NMDA, N-methyl-D-aspartate, reference compound] | – | inward whole-cell current ([3]; 50 uM NMDA + 1 uM glycine, three second applications, -60 mV): 100-1000 pA
